Patent publication US11571397B2, “Compositions and methods for treating seizure-induced sudden death” (ZOGENIX INTERNATIONAL LIMITED, priority 2018, dated 2023)

How the values were obtained:
Dravet syndrome patients = conditions: cited from earlier work
[1] = tested on: children with refractory epilepsy; conditions: 0.5 to 1 mg/kg/day; cited from earlier work
DBA/1 mice = test: Audiogenic seizures (AGSz) and S-IRA in DBA/1 mice, initial testing protocol (30 min, 12 h, 24 h, then 24 h intervals); type: in vivo, mouse
Description: These studies involved age matched (<80 days) male DBA/1 mice obtained from ENVIGO. Because there were no significant sex differences in the AGSz incidence (frequency), severity and S-IRA susceptibility in DBA/1 mice, males were used in this study. The mice were primed as described in previous studies (Faingold et al., (2010). Epilepsy Behav. 17:436-40; Faingold, et al. (2011) Brain Res. 1418:104-10; Faingold, et al., (2011) Epilepsy Behav. 22:186-90). Briefly, the mice were maintained on an ad libitum diet under a 12 h light-dark cycle in a temperature and humidity-controlled laboratory animal medicine facility. Starting at postnatal day 23-25, the mice were primed and tested for consistent susceptibility to AGSz and S-IRA by presenting an intense acoustic stimulus, as described previously.
The typical seizure semiology in the DBA/1 mice begins with a wild running phase, followed by clonic-tonic seizures and then tonic hind-limb extension that immediately leads to S-IRA during post-ictal behavioral depression (PID). The onset of S-IRA was visually determined by the occurrence of respiratory failure following loss of the righting reflex, relaxation of the pinnae, and then a generalized loss of muscle tone. These behaviors are reliable indicators of imminent sudden death in DBA mice. Resuscitation was initiated within 10 s after pinna relaxation and the generalized loss of muscle tone, which was effective in reversing S-IRA and reviving >90% of the mice. The mice were placed in a supine position, and a polyethylene tube (4.4 mm external diameter) connected to the outflow of a rodent respirator (Harvard Apparatus 680), pumping one cc of room air at 200 strokes/min, was the placed over the nostrils, which produced observable displacement of the chest. Respiratory support was provided until spontaneous breathing rhythm returned, which required ˜19 sec. The mice were monitored until they regained the righting reflex and then returned to their home cage. Video recordings of seizure behaviors and recovery were made for off-line evaluation and analysis, including the duration of PID, as indicated by time from muscle tone loss to return of the righting reflex.
The experiments herein disclosed examined the dose-response relationship of FFA (10-40 mg/kg, i.p.) on AGSz-induced behaviors in DBA/1 mice compared to vehicle (saline) treated control mice using different seizure-testing protocols. This initial protocol involved induction of AGSz at 30 min, 12 h and 24 h after drug administration, and subsequently at 24 h intervals until susceptibility to S-IRA returned. These studies were aimed at determining whether FFA can reduce the incidence (frequency) and severity of AGSz and susceptibility to S-IRA. […] To determine the effect of FFA on the severity of AGSz in DBA/1 mice, the ordinal scoring system of De Sarro and coworkers was used: no seizure=0; wild running=1; clonic seizure=2; tonic seizure=3; death/S-IRA=4. The median effective dose (ED50) for FFA for blocking AGSz at 30 min following the i.p. injection in DBA/1 mice was calculated using a second order polynomial equation (y=65.113x^2-2.0715x-63.578) that gave the best fit (R^2=0.9989).
The videos of seizure behaviors were analyzed visually, and the incidence (frequency) of AGSz, seizure severity, and incidence (frequency) of S-IRA following drug treatment were compared statistically to vehicle controls using the Chi-square, Mann-Whitney U or paired samples t-test with SPSS software. The ED50 was calculated using SigmaPlot 13 and Microsoft® Excel. The experimental protocols used in these studies were approved by the Laboratory Animal Care and Use Committee of Southern Illinois University School of Medicine, which are in accordance with National Institutes of Health guidelines for the care and use of laboratory animals. Measures to minimize animal usage as well as pain and discomfort were included in these procedures.

[2] = 20 and 40 mg/kg i.p., starting at 30 min, vs saline

CCNC(C)Cc1cccc(C(F)(F)F)c1 (racemic) [FFA, 3-trifluoromethyl-N-ethylamphetamine]
frequency and/or severity of intractable seizures (Dravet syndrome patients): significantly reduced | number of seizures experienced by the patients [1]: reduction | incidence (frequency) of S-IRA (DBA/1 mice; 10 mg/kg): not affected | incidence of tonic seizures (DBA/1 mice; 10 mg/kg): not affected | incidence (frequency) of AGSz (DBA/1 mice; 10 mg/kg i.p.): No significant effect | AGSz severity (DBA/1 mice; 10 mg/kg, at 12 h): significantly reduced | reduction of S-IRA (DBA/1 mice; 10 mg/kg, at 12 h): 36.4% | reduction of tonic seizure (DBA/1 mice; 10 mg/kg, at 12 h): 54.6% | mice showing S-IRA blockade following tonic seizure (selective S-IRA block) (DBA/1 mice; 10 mg/kg, at 12 h, not statistically significant): 18.2% | duration of AGSz blockade (DBA/1 mice; 15 mg/kg): < 24 h | onset of AGSz blockade (DBA/1 mice; 15 mg/kg): 12 h | tonic seizure blocking effect (DBA/1 mice; 15 mg/kg): delayed and transient | return of maximal seizure severity (DBA/1 mice; 20 mg/kg): 24 h | duration of seizure severity decrease (DBA/1 mice; 40 mg/kg): up to 8 days | mice continuing to show reduced susceptibility to tonic AGSz and S-IRA for up to 8 days (DBA/1 mice; 40 mg/kg): 33.3% | return of maximal seizure severity (DBA/1 mice; 40 mg/kg): 48 h | time at which reduction in severity score occurred (DBA/1 mice; 10 and 15 mg/kg): 12 h | incidence (frequency) of AGSz (DBA/1 mice; 15, 20 and 40 mg/kg i.p. vs saline treated controls): significantly reduce | incidence (frequency) of S-IRA (DBA/1 mice; 15, 20 and 40 mg/kg i.p., beginning at 30 min, vs saline): significant reduction | duration of reductions of seizure incidence, severity and S-IRA susceptibility (DBA/1 mice; 20-40 mg/kg): ≥ 48 h | susceptibility to AGSz (DBA/1 mice; 20 and 40 mg/kg i.p., at 30 minutes, vs saline-treated controls): significantly reduced | median AGSz severity score (DBA/1 mice; [2]): significant reduction | tonic seizure incidence (DBA/1 mice; [2]): significant reduction | return of S-IRA susceptibility (DBA/1 mice; FFA-treated mice, initial protocol): ≤ 72 h | ED50 (DBA/1 mice; Mus musculus, ip, 0.5 h, 30 min after i.p. injection, read-out: ED50 for blockade of AGSz): 21.7 mg/kg
